The values that follow come from ChEMBL document CHEMBL2176966, “Discovery of 6,7-dihydro-5H-pyrrolo[2,3-a]pyrimidines as orally available G protein-coupled receptor 119 agonists” (J Med Chem, 2012).

As a reminder, the pEC50 is the EC50 on a negative log10 scale, so that one unit is a factor of ten. A word on the AUC(0-t): it is exposure summed from dosing to a finite time, without extrapolation to infinity.

Calls of active or inactive are those of the source. No cut-off for these calls is given here. Bounds are passed on as bounds.

In one data set the test system is Rattus norvegicus. The experiment in a line: Dose normalized AUC (0 to 24 hrs) in rat at 30 mg/kg. Type of data set: ADME, organism-based. On the set-up: dose 30 mg/kg. The following applies: in vivo.
For `CC(C)OC(=O)N1CCC(Oc2ncnc3c2CCN3c2ccc(C#N)cc2F)CC1`, the AUC/dose was greater than 1 µg·h/mL.

A further data set has as its target T1, Glucose-dependent insulinotropic receptor (Homo sapiens, UniProt Q8TDV5).
T1 sequence (Q8TDV5 whole entry): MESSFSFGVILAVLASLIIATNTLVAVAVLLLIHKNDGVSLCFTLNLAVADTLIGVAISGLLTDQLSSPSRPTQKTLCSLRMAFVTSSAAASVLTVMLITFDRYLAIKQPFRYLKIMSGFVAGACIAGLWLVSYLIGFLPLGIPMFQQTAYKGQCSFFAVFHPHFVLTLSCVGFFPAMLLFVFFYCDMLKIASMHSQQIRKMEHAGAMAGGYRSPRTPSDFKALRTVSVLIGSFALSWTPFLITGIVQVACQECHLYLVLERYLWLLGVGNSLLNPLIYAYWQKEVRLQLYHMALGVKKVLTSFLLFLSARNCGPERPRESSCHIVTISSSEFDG
Briefly: Agonist activity at human GPR119 receptor expressed in CHO-K1 cells co-expressing 6CRE-luciferase gene after 5 hrs by luciferase reporter gene assay. Type of data set: functional, cell-based. As to conditions: cho-k1. For orientation: Reporter assays use an easily measured gene product as a stand-in for the process of interest.
On to `CC(C)OC(=O)N1CCC(Oc2ncnc3c2CC(C)N3c2ccc(S(C)(=O)=O)cc2F)CC1` (single isomer, unassigned; (+)), for which the pEC50 is listed as less than 5.

The data set is the same for the next values; noted with them: read-out: EC50.
As for `O=[N+]([O-])c1c(Nc2ccc(-n3cncn3)cc2)ncnc1N1CCC(Sc2ccccn2)CC1`, the EC50 is 200 nM.

The same data set, now with this note: read-out: pEC50 (converted).
On to `CC(C)OC(=O)N1CCC(Oc2cccc3c2CCN3c2ccc(S(C)(=O)=O)cc2F)CC1`, for which the EC50 is 1000 nM.

For the molecule `CC(C)(C)COC(=O)N1CCC(Oc2ncnc3c2CCN3c2ccc(S(C)(=O)=O)cc2F)CC1`, the EC50 was 39.8 nM.

Consider `CC(C)OC(=O)N1CCC(Oc2ncnc3c2CCN3c2ccc(C#N)cn2)CC1`, for which the EC50 is 794 nM. On the same count and under the same terms, the same measure for `CC(C)OC(=O)N1CCC(Oc2ncnc3c2CCN3c2ccc(S(=O)(=O)N(C)C)cc2)CC1`: 501 nM; for `CCSC(=O)N1CCC(Oc2ncnc3c2CCN3c2ccc(S(C)(=O)=O)cc2F)CC1`: 31.6 nM; for `CC(C)OC(=O)N1CCC(Oc2nc(N)nc3c2CCN3c2ccc(S(C)(=O)=O)cc2F)CC1`: 794 nM. Regarding `CSC(=O)N1CCC(Oc2ncnc3c2CCN3c2ccc(S(C)(=O)=O)cc2F)CC1`, the EC50 is 251 nM. Consider `CC(C)OC(=O)N1CCC(Oc2ncnc3c2CCN3c2ccc([S@+](C)[O-])cc2F)CC1`, for which the EC50 is 50.1 nM.

Take `CCN(CC)C(=O)CN1CCC(Oc2ncnc3c2CCN3c2ccc(S(C)(=O)=O)cc2F)CC1`: the EC50 is greater than 10000 nM.

As for `CC(C)SC(=O)N1CCC(Oc2ncnc3c2CCN3c2ccc(S(C)(=O)=O)cc2F)CC1`, the EC50 is 10 nM. The same measure, in the same setting: the same measure for `CC(C)OC(=O)N1CCC(Oc2ncnc3c2CCN3c2ccc(C#N)c(F)c2)CC1`: 398 nM; for `CC(C)c1noc(N2CCC(Oc3ncnc4c3CCN4c3ccc(S(C)(=O)=O)cc3F)CC2)n1`: 79.4 nM. Consider `CC(C)OC(=O)N1CCC(Nc2ncnc3c2CCN3c2ccc(S(C)(=O)=O)cc2F)CC1`, for which the EC50 was 2000 nM.

With `CS(=O)(=O)c1ccc(N2CCc3c(OC4CCN(C(=S)Sc5ccccc5)CC4)ncnc32)c(F)c1`, the EC50 is 12.6 nM. Still for that read-out and setting: to `N#CN1CCC(O)CC1` belongs 316 nM; to `CC(C)OC(=O)N1CCC(Oc2cccc3c2CCN3c2ccc(S(C)(=O)=O)cc2)CC1`, 501 nM; to `CC(C)OC(=O)N1CCC(Oc2ncnc3c2CCN3c2ccc(S(C)(=O)=O)c(F)c2)CC1`, 158 nM.

Take `CC(C)OC(=O)N1CCC(Oc2ncnc3c2CCN3c2ccc(-c3cccn3C)cc2F)CC1`: the EC50 was 158 nM. As to `CS(=O)(=O)c1ccc(N2CCc3c(OC4CCN(C5=NCCCN5)CC4)ncnc32)c(F)c1`, the EC50 was 2000 nM. As for `CC(C)OC(=O)N1CCC(Oc2ncnc3c2CC(C)N3c2ccc(S(C)(=O)=O)cc2F)CC1` (single isomer, unassigned; (-)), the EC50 is greater than 10000 nM. As to `CC(C)S(=O)(=O)N1CCC(Oc2ncnc3c2CCN3c2ccc(S(C)(=O)=O)cc2F)CC1`, the EC50 was 1260 nM. Consider `CC(C)(C)OC(=O)N1CCC(Oc2cccc3c2CCN3c2ccc(S(C)(=O)=O)cc2)CC1`, for which the EC50 is 158 nM. Turning to `Cc1nc(OC2CCN(C(=O)OC(C)(C)C)CC2)c2c(n1)N(c1ccc(S(C)(=O)=O)cc1F)CC2`, the EC50 is 126 nM. `Cc1nc(OC2CCN(C(=O)OC(C)C)CC2)c2c(n1)N(c1ccc(S(C)(=O)=O)cc1F)CC2`: the EC50 was 100 nM. Regarding `CC(C)c1noc(N2CCC(O)CC2)n1`, the EC50 is 50.1 nM. For the molecule `Cc1ncccc1N1CCc2c(OC3CCN(C(=O)OC(C)C)CC3)ncnc21`, the EC50 was greater than 10000 nM. With `CC(C)OC(=O)N1CCC(Oc2ncnc3c2CCN3c2ccc(S(C)(=O)=O)cn2)CC1`, the EC50 is 126 nM. On the same count and under the same terms, to `CNc1nc(OC2CCN(C(=O)OC(C)C)CC2)c2c(n1)N(c1ccc(S(C)(=O)=O)cc1F)CC2` belongs greater than 10000 nM.

In the case of `CC(C)(C)OC(=O)N1CCC(Oc2ncnc3c2CCN3c2ccc(S(C)(=O)=O)cc2F)CC1`, the EC50 was 20 nM. Same read-out and setting: the same measure for `CC(C)OC(=O)N1CCC(Oc2ncnc3c2CCN3c2ccc(C#N)cc2F)CC1`: 63.1 nM. On to `CC(C)OC(=O)N1CCC(Oc2ncnc3c2CCN3c2ccc([S@@+](C)[O-])cc2F)CC1`, for which the EC50 is 631 nM. As to `CC(C)(C)OC(=O)N1CCC(Oc2cccc3c2ccn3-c2ccc(S(C)(=O)=O)cc2)CC1`, the EC50 was 631 nM. Take `CC(C)COC(=O)N1CCC(Oc2ncnc3c2CCN3c2ccc(S(C)(=O)=O)cc2F)CC1`: the EC50 is 25.1 nM. As to `CCS(=O)(=O)N1CCC(Oc2ncnc3c2CCN3c2ccc(S(C)(=O)=O)cc2F)CC1`, the EC50 was 1580 nM.

On to `CC(C)OC(=O)N1CCC(Sc2ncnc3c2CCN3c2ccc(S(C)(=O)=O)cc2F)CC1`, for which the EC50 is 79.4 nM. On to `CSc1ccc(N2CCc3c(OC4CCN(C(=O)OC(C)C)CC4)ncnc32)c(F)c1`, for which the EC50 was 398 nM. In the case of `CC(C)OC(=O)N1CCC(Oc2ncnc3c2CCN3c2ccc(F)cn2)CC1`, the EC50 was greater than 10000 nM. `CS(=O)(=O)c1ccc(N2CCc3c(OC4CCN(C(=O)OCCF)CC4)ncnc32)c(F)c1`: the EC50 is 501 nM. Consider `COCCOC(=O)N1CCC(Oc2ncnc3c2CCN3c2ccc(S(C)(=O)=O)cc2F)CC1`, for which the EC50 was 316 nM. On to `CC(C)OC(=O)N1CCC(N(C)c2ncnc3c2CCN3c2ccc(S(C)(=O)=O)cc2F)CC1`, for which the EC50 was 631 nM. The same measure, in the same setting: to `COC(=O)N1CCC(Oc2ncnc3c2CCN3c2ccc(S(C)(=O)=O)cc2F)CC1` belongs 316 nM; to `CN(C)S(=O)(=O)N1CCC(Oc2ncnc3c2CCN3c2ccc(S(C)(=O)=O)cc2F)CC1`, 398 nM; to `CC(C)OC(=O)N1CCC(S(=O)(=O)c2ncnc3c2CCN3c2ccc(S(C)(=O)=O)cc2F)CC1`, greater than 10000 nM. Regarding `CCCCOC(=O)N1CCC(Oc2ncnc3c2CCN3c2ccc(S(C)(=O)=O)cc2F)CC1`, the EC50 was 50.1 nM. Same read-out and setting: the same measure for `CC(C)OC(=O)N1CCC(Oc2ncnc3c2CCN3c2ccc(-c3nccs3)cc2F)CC1`: 79.4 nM; for `CCCOC(=O)N1CCC(Oc2ncnc3c2CCN3c2ccc(S(C)(=O)=O)cc2F)CC1`: 79.4 nM; for `CC(C)OC(=O)N1CCC(Oc2ncnc3c2CCN3c2ccc(S(C)(=O)=O)nc2)CC1`: 251 nM.

As for `CCOC(=O)N1CCC(Oc2ncnc3c2CCN3c2ccc(S(C)(=O)=O)cc2F)CC1`, the EC50 was 251 nM. `Cc1nc(OC2CCN(c3nc(C(C)C)no3)CC2)c2c(n1)N(c1ccc(S(C)(=O)=O)cc1F)CC2`: the EC50 was 251 nM.

For the molecule `CC(C)OC(=O)N1CCC(Oc2ncnc3c2CCN3c2ccc(S(C)(=O)=O)cc2)CC1`, the EC50 was 126 nM.

For `Cc1cc(S(C)(=O)=O)ccc1N1CCc2c(OC3CCN(C(=O)OC(C)C)CC3)ncnc21`, the EC50 is 100 nM.

The test system of the next data set is Rattus norvegicus. Briefly: Antihyperglycemic activity in Wistar rat assessed as glucose excursion curve at 10 mg/kg, po by glucose tolerance test. The data set is classed as functional.
Details: not given
As to `N#C[C@@H]1CCCN1C(=O)CNC12CC3CC(CC(O)(C3)C1)C2`, the result was Active.

System in another data set: not listed separately
Briefly: AUC (0 to 24 hrs) in rat at 10 mg/kg. Type of data set: ADME, organism-based. The following applies: plasma. On the set-up: time < 24 hr, dose 10 mg/kg.
`CC(C)c1noc(N2CCC(Oc3ncnc4c3CCN4c3ccc(S(C)(=O)=O)cc3F)CC2)n1` showed an AUC(0-t) at 24 h of 500 ng·h/mL.

A further data set concerns Mus musculus. The experiment in a line: Dose normalized AUC (0 to 24 hrs) in mouse at 30 mg/kg. Type of data set: ADME, organism-based. More on the design: dose 30 mg/kg. The following applies: in vivo.
Take `CCc1cnc(N2CCC(Oc3ncnc4c3CCN4c3ccc(S(C)(=O)=O)cc3F)CC2)nc1`: the AUC/dose came to 0.04 µg·h/mL.
